Reference: PubChem BioAssay AID1794825

Target: Sodium- and chloride-dependent glycine transporter 2 (Homo sapiens) (UniProt Q9Y345)
Experiment: PubChem AID 1794825
Settings: HEK-293 SLC6A5 OE, FLIPR membrane potential dye

Chain of Sodium- and chloride-dependent glycine transporter 2 (Homo sapiens) (Q9Y345 whole entry, looked up): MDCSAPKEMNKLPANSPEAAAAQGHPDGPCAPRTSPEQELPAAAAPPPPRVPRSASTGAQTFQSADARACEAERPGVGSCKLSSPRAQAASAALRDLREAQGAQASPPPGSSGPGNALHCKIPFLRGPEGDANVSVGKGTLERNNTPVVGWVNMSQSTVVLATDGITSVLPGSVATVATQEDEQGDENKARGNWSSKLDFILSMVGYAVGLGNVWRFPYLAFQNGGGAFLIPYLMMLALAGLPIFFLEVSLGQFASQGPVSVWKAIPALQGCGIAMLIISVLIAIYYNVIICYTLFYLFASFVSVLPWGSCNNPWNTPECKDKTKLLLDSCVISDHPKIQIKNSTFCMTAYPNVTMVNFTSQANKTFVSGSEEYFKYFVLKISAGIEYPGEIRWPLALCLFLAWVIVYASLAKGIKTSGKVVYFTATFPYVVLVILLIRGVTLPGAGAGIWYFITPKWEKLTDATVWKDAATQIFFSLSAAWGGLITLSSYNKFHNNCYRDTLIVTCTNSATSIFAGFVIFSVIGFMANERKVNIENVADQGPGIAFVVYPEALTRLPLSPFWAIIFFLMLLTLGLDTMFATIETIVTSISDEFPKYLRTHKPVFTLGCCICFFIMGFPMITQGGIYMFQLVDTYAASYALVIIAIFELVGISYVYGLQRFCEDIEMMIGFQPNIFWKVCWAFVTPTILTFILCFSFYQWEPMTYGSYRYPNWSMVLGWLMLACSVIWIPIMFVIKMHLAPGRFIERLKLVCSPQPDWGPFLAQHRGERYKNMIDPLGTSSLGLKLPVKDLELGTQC

Structure (SMILES): NCC(=O)O
- EC50: 128 µM
